Assay [1] has as its system brown marmorated stink bug (BMSB), Halyomorpha halys (Stål). Nature of the assay: Indoor trapping experiment with murgantiol-baited Rescue! Stink Bug Traps in homes. Format: in vivo. The conditions noted are these: for behavioral attraction of indoor stink bugs to baited traps: 5 mg lure on rubber septum, traps inside homes, early May, compared to blank control; for stink bugs caught relative to the blank control traps: 5 mg lure, indoor traps, blank control caught average 1 bug/trap. On the procedure:
A trapping experiment was carried out inside three homes with decent overwintering stink bug populations in Pittsburgh, Pa., during twelve days in early May to study potential attraction of the BMSB adults to a known Harlequin bug pheromone, murgantiol. During or before the experiment, overwintering stink bugs started waking up from their hibernation stage and walking/crawling inside homes. Three treatment lures and a blank control were tested using Sterling Rescue!® Stink Bug Traps (FIG. 1) in a block design. The three treatments included (i) 5 mg of more polar murgantiol mixture (a mixture of 8 more polar stereoisomers); (ii) 5 mg of less polar murgantiol mixture (a mixture of 8 less polar stereoisomers); and (iii) 5 mg of a racemic mixture of all 16 murgantiol stereoisomers. The test samples of (i), (ii), and (iii) were synthesized and separated based on the methods described by Zahn et al., J. Chem. Ecol. 34:238 (2008). The following scheme outlines the method starting from citronellal to prepare a racemic mixture of stereomers:
Lures were prepared by loading hexane solutions of the test compounds with 1% butylated hydroxytoluene (BHT) added as stabilizer onto grey rubber septa (5 mm sleeve-type; The West Co., Lititz, Pa.) via a rotor evaporator. The blank control dispensers were made in the same fashion as the treatment lures, but without any murgantiol mixtures—that is, rubber septum with hexane only. A set of four Sterling Rescue!® Stink Bug Traps baited with three different isomer mixture test samples of murgantiol dispensers and the blank control were set up in the same room of each selected home on the floor or hung from walls near windows (where stink bug activities were seen earlier). The starting positions of the four test traps within each set (room) were assigned randomly. The distance between traps within the same set was about 8-10 feet, depending on the size of each test room. Traps were checked every day and emptied when ≧5 bugs were captured in the best trap within the set, and their positions were re-randomized for a new replicate to minimize any positional effects.
Trap catch data were converted to proportion (P) of total captured bugs within each replicate to meet the assumptions of normality and homogeneity of variances for ANOVA (analysis of variance). Means were compared by ANOVA followed by the Duncan's multiple range test at α=0.05.

The subject of assay [2] is Harlequin bug, Murgantia histrionica (Hahn). The conditions noted are these: both sexes; insect-produced and synthetic murgantiol; laboratory bioassays; cited from earlier work.

Structures are written as SMILES.

Consider four compounds from patent publication US8663619B2, “Murgantiol as an indoor stink bug attractant” (Sterling International Inc., priority 2011, dated 2014).

Consider `CC(CCC1OC1(C)C)C1C=CC(C)(O)CC1` (single isomer, unassigned) [more polar murgantiol mixture], for which, in assay [1], the “behavioral attraction of indoor stink bugs to baited traps” value (from here on “behavioral attraction”) is “strong attraction” and the “stink bugs caught relative to the blank control traps” value was “six times”.

Turning to `CC(CCC1OC1(C)C)C1C=CC(C)(O)CC1` (stereo not shown) [murgantiol, 4-[3-(3,3-dimethyloxiran-2-yl)-1-methylpropyl]-1-methylcyclohex-2-en-1-ol], in assay [1] (both sexes, indoors during the overwintering and transition periods), the “attractiveness to BMSB adults indoors” value is on record as “strongly attractive”. Besides, in assay [2], the “attraction of sexually mature Harlequin bugs” value is reported as “attracted sexually mature Harlequin bugs of both sexes”.

`CC(CCC1OC1(C)C)C1C=CC(C)(O)CC1` (single isomer, unassigned) [less polar murgantiol mixture]: the “behavioral attraction” value in assay [1] is recorded as “weakly attractive”.

On to `CC(CCC1OC1(C)C)C1C=CC(C)(O)CC1` (racemic) [racemic mixture of all 16 murgantiol stereoisomers], for which, in assay [1], the “behavioral attraction” value is reported as “significant attraction” and the “stink bugs caught relative to the blank control traps” value is “five times”.
